Data taken from patent US20060252698A1, “Compounds for inhibiting cathepsin activity” (priority 2005, published 2006).
Starred links: 1 amine or outer side, 2 acyl side, 3 side chain; linkers in the order of their positions; H or OH if unused. Non-standard residues stand in square brackets, D forms with d. Residues, ends and D or L forms follow the SMILES beside them. *: point of attachment. Hyp = O=C(O)[C@@H]1C[C@@H](O)CN1; X2 = CCCC(N[*:1])C(=O)C(=O)[*:2]; Phg = N[C@H](C(=O)O)c1ccccc1; Tle = CC(C)(C)[C@H](N)C(=O)O; CO = O=C([*:1])[*:2]; X1 = CC1(N*)CCCCC1; tBu = CC(C)(C)*

Target: T1, Human Liver Cathepsin L (Homo sapiens, UniProt P07711)
T1 construct: purchased Calbiochem 219402
Assay: Cathepsin L inhibition assay (kinetic, Z-Phe-Arg-pNA substrate)
Assay type: biochemical
Conditions: Z-Phe-Arg-pNA 120 μM, enzyme 12 nM, pH 5.5, read at 410 nm
Description: Cathepsin Assay Protocols:
• 1. 96-well Round or V-bottom microplates for dilutions • 2. 96-well COSTAR UV microplates for assay (COSTAR cat.#3635) • 3. Bio-Spin 6 Chromatography Columns (BIO-RAD cat.#732-6002). • 4. 12-75 mm test tubes • 5. Falcon 50 ml tubes • 6. Falcon 14 ml tubes • 7. 1.5 ml eppendorf tube • 8. ≦10 ml buffer reservoir Reagents: • 1. Enzyme: Cathepsin G, M.W.23,500, 10 μM stock. • 2. Substrate:Suc-Ala-Ala-Pro-Phe-pNA, M.W. 624.65, prep. 100 mM [62.465 mg/ml] stock. • 3. Buffer: [50 mM HEPES, 500 mM NaCl, 5 μM EDTA, pH 7.14], 5 μM DTT Instrument Settings: SpectraMax Plus • 1. Kinetic assay reading@405 nm • 2. Read interval: 30 seconds • 3. Time: 1 hour • 4. OD Min: −0.001 • 5. OD Max: 0.5 • 6. Data Mode: Absorbance • 7. e405=194.078 μM/O.D. Procedure: • 1. Add 73 μl of buffer to all wells. • 2. Add […] of buffer to (−E) controls. • 3. Add 7 μl of sample and/or DMSO for controls to appropriate wells. • 4. Prep. substrate: 100 mM (62.465 mg/ml) stock in 100% DMSO. • 5. Dilute 1:20 in buffer. 75 μl in 1.425 ml. 5 mM final. • 6. Add 20 μl of 5 mM substrate to all wells. 500 μM final. • 7. Dilute enzyme (1:50) in buffer; Add 120 μl to 5,880 μl buffer. 2×[200 nM] final. • 8. Add 100 μl of 2× [200 nM] enzyme to assigned wells, except (−E) controls. [100 nM] final. • 11. Vortex 20 seconds. Read@ 405 nM every 30 seconds for 1 hour on SpectraMax Plus • Endpoint assay reading plate@ 600 nM. Used for the detection of precipitation. Cathepsin H: Materials: • 1. 96-well Round or V-bottom microplates for dilutions • 2. 96-well COSTAR UV microplates for assay (COSTAR cat.#3635) • 3. Bio-Spin 6 Chromatography Columns (BIO-RAD cat.#732-6002) • 4. 12-75 mm test tubes • 5. Falcon 50 ml tubes • 6. Falcon 14 ml tubes • 7. 1.5 ml eppendorf tube • 8. ≧10 ml buffer reservoir Reagents: • 1. Enzyme: Cathepsin H, M.W.28,000, 9.07 μM stock. • 2. Substrate:H-Arg-pNA, M.W. 367.2, prep. 50 mM [18.36 mg/ml] stock. • 3. Buffer: [100 mM NaP04, 1 mM EDTA, 1 mM DTT, pH 6.5 Instrument Settings: SpectraMax Plus • 1. Kinetic assay reading@410 nM • 2. Read interval: 30 seconds • 3. Time: 1 hour • 4. OD Min: −0.001 • 5. OD Max: 0.05 • 6. Data Mode: Absorbance • 7. e410=188.415 μM/O.D. Km=108±5 μM Procedure: • 1. Prep. substrate: 50 mM (18.36 mg/ml) stock in 100% DMSO. • 2. Add 73 μl of buffer to all wells. • 3. Add 7 μl of sample to appropriate wells: a.) 100% DMSO for (+E) & (−E) controls. • 4. Add 100 μl of buffer to (−E) controls. • 5. Dilute substrate (1:20) in buffer; Add 140 μl to 2.66 ml buffer while vortexing. [2.5 mM] final. • 6. Add 20 μl of substrate to all wells. Vortex 3-5 seconds. [250 μM] final. • 7. Dilute enzyme (1:64.8) in buffer; Add 179 μl to 11.418 ml buffer. 2× [140 nM] final. • 8. Add 100 μl of 2× [140 nM] enzyme to assigned wells, except (−E) controls. [70 nM] final. • 9. Read@410 nM every 30 seconds for 1 hour on SpectraMax Plus Cathepsin L: Materials: • 1. 96-well Round or V-bottom microplates for dilutions • 2. 96-well COSTAR UV microplates for assay (COSTAR cat.#3635) • 3. Falcon 50 ml tubes • 4. Falcon 14 ml tubes • 5. 1.5 ml eppendorf tube • 6. 10 ml buffer reservoir Reagents: • 1. Enzyme: Calbiochem #219402: Cathepsin L, M.W.29,000, 11.62 μM stock. Lot#B45683 • 2. Substrate: Bachem #L-1242: Z-Phe-Arg-pNA, M.W. 612.09, prep. 4.8 mM [2.938 mg/ml] stock in 100% DMSO. • 3. Buffer: [100 mM NaP04, 1 mM EDTA, pH 5.5] Supplement buffer w/1 mM DTT, day of assay. Experiment #1: • Instrument settings: SpectraMax Plus microtiter plate reader (Molecular Devices, Sunnydale, Calif.) • 1. Kinetic assay reading@410 nM • 2. Read interval: 30 seconds • 3. Time: 1 hour • 4. OD Min: −0.001 • 5. OD Max: 0.05 • 6. Data Mode: Absorbance • 7. ε410=161.311 μM/O.D. Km=56±8 μM Procedure: • 1. Add 88 μl of buffer to all wells. • 2. Add 7 μl of sample or 100% DMSO to appropriate wells. • 3. Add 100 μl of buffer to (−E) controls. • 5. Add 5 μ 4.8 mM] substrate to all wells. [120 μM] final. • 6. Vortex 3-5 seconds. • 7. Dilute enzyme (1:483.87) in buffer; Add 24.8 μl to 12,000 μl buffer. 2×[24 nM] final. • 8. […]

T1 sequence (P07711 114-288 limits assumed): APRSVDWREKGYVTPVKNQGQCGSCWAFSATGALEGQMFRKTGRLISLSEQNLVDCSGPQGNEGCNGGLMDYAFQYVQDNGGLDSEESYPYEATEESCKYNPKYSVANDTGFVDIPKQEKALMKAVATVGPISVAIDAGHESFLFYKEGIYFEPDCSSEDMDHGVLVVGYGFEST
T1 sequence (P07711 292-333 limits assumed): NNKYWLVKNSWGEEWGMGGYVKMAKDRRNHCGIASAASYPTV

Row | Ki | Structure (SMILES)
1 | 170 nM | CCCC(NC(=O)[C@@H]1C[C@@H](OC(C)(C)C)CN1C(=O)[C@@H](NC(=O)NC1(C)CCCCC1)C(C)(C)C)C(=O)C(=O)NCC(=O)N[C@H](C(=O)N(C)C)c1ccccc1 (some centres unmarked) ({X1-CO}-[Tle][Hyp](tBu)[X2]G[Phg]-NMe2)
2 | 366 nM | C=CCNC(=O)C(=O)[C@@H]1CCCCCCCCC[C@H](NC(=O)N[C@H](CN2CCC(C)(C)CC2=O)C(C)(C)C)C(=O)N2C[C@H]3[C@@H]([C@H]2C(=O)N1)C3(C)C
3 | 76 nM | CC(C)(C)NC(=O)N[C@H](C(=O)N1C[C@H]2[C@@H]([C@H]1C(=O)NC(CC1CCC1)C(=O)C(N)=O)C2(C)C)C(C)(C)C (some centres unmarked)
4 | 11 nM | CCCC[C@H](NC(=O)[C@@H]1[C@@H]2[C@H](CN1C(=O)[C@@H](NC(=O)NC1(CS(=O)(=O)C(C)(C)C)CCCCC1)C1(C)CCCCC1)C2(C)C)C(=O)C(=O)NC1CC1
5 | 25 nM | CC(C)(C)[C@H](NC(=O)NC1(CS(=O)(=O)C(C)(C)C)CCCCC1)C(=O)N1C[C@H]2[C@@H]([C@H]1C(=O)N[C@@H](CCC1CC1)C(=O)C(=O)NC1CC1)C2(C)C [drawing 662]
6 | 110 nM | CN(C[C@@H](NC(=O)N[C@H](C(=O)N1C[C@H](OC(C)(C)C)C[C@H]1C(=O)NC(CC1CCC1)C(=O)C(N)=O)C1CCCCC1)C(C)(C)C)S(C)(=O)=O (some centres unmarked)
7 | 20 nM | CCCC(NC(=O)[C@H](CC(C)C)NC(=O)C(NC(=O)OC(C)(C)C)C(C)(C)C)C(=O)C(N)=O (some centres unmarked)
8 | 40 nM | CCCC[C@H](NC(=O)[C@@H]1[C@@H]2[C@H](CN1C(=O)[C@@H](NC(=O)NC1([C@H]3CCN(C)S3(=O)=O)CCCCC1)C(C)(C)C)C2(C)C)C(=O)C(=O)NC1CC1
9 | 4.8 nM | CC(=O)N[C@@H](CC(C)C)C(=O)N[C@@H](CC(C)C)C(=O)N[C@H](C=O)CCCNC(=N)N [drawing 710]
10 | 63 nM | CC1(C)C2CN(C(=O)[C@@H](NC(=O)NC3CCCCC3)C(C)(C)C)[C@H](C(=O)NC(CC3CCC3)C(=O)C(N)=O)C21 (some centres unmarked)
11 | 20 nM | C=CCNC(=O)C(=O)C(CC1CC1)NC(=O)[C@@H]1[C@@H]2[C@H](CN1C(=O)[C@@H](NC(=O)N[C@H](CN1C(=O)CC(C)(C)CC1=O)C(C)(C)C)C(C)(C)O)C2(C)C (some centres unmarked)
12 | 40 nM | C=CCNC(=O)C(=O)[C@H](CCC1CC1)NC(=O)[C@@H]1[C@@H]2[C@H](CN1C(=O)[C@@H](NC(=O)NC1(CS(=O)(=O)C(C)(C)C)CCCCC1)C(C)(C)C)C2(C)C [drawing 669]
13 | 1500 nM | C=CCCC(NC(=O)[C@H]1C(C(=O)[C@@H](NC(=O)OC(C)(C)C)C2CCCCC2)C[C@@H]2C[C@@H]21)C(=O)C(=O)NCC=C (some centres unmarked)
14 | 370 nM | C=CCNC(=O)C(=O)[C@@H]1CCCCCCCCC[C@H](NC(=O)N[C@H](CN(C)S(=O)(=O)N(C)C)C(C)(C)C)C(=O)N2C[C@H]3[C@@H]([C@H]2C(=O)N1)C3(C)C
15 | 110 nM | CC1(C)[C@@H]2[C@H]3C(=O)N[C@H](C(=O)C(=O)NC4CC4)CCCCCCCCC[C@H](NC(=O)NC4(C5CCCS5(=O)=O)CCCCC4)C(=O)N3C[C@@H]21 (some centres unmarked)
16 | 7 nM | CCCC[C@H](NC(=O)[C@@H]1[C@@H]2[C@H](CN1C(=O)[C@@H](NC(=O)NC1(CS(=O)(=O)C(C)(C)C)CCCCC1)C(C)(C)C)C2(C)C)C(=O)C(=O)NC1CC1 [drawing 652]

Row | Ki | Structure (SMILES)
17 | 330 nM | CCCNC(=O)C(=O)[C@@H]1CCCCCCCCC[C@H](NC(=O)NC2(CS(=O)(=O)C(C)(C)C)CCCCC2)C(=O)N2C[C@H]3[C@@H]([C@H]2C(=O)N1)C3(C)C
18 | 220 nM | CC(C)(C)OC(=O)N[C@H](C(=O)N1C[C@H]2[C@@H]([C@H]1C(=O)NC(CC1CC1)C(=O)C(N)=O)C(C)(C)C2(C)C)C1CCCCC1 (some centres unmarked)
19 | 38 nM | COc1ccc2c(O[C@@H]3C[C@H]4C(=O)N[C@]5(C(=O)O)CC5/C=C\CCCCC[C@H](NC(=O)OC5CCCC5)C(=O)N4C3)cc(-c3csc(NC(C)C)n3)nc2c1 (some centres unmarked)
20 | 80 nM | CCCC[C@H](NC(=O)[C@@H]1[C@@H]2[C@H](CN1C(=O)[C@@H](NC(=O)NC1([C@H]3CCCS3(=O)=O)CCCCC1)C(C)(C)C)C2(C)C)C(=O)C(=O)NC1CC1
21 | 20 nM | CC(C)(C)OC(=O)N[C@H](C(=O)N1c2ccccc2C[C@H]1C(=O)NC(CC1CC1)C(=O)C(N)=O)C1CCCCC1 (some centres unmarked)
22 | 97 nM | CN(C)C(=O)[C@@H](NC(=O)CNC(=O)C(=O)C(CC1CC1)NC(=O)[C@@H]1[C@H]2CC(C)(C)O[C@H]2CN1C(=O)[C@@H](NC(=O)OC(C)(C)C)C1CCCCC1)c1ccccc1 (some centres unmarked)
23 | 80 nM | CCCC(NC(=O)[C@@H]1Cc2ccc3cc2CN1C(=O)[C@H](C1CCCCC1)NC(=O)CCCCCCO3)C(=O)C(N)=O (some centres unmarked)
24 | 60 nM | C=CCNC(=O)C(=O)[C@@H]1CCCCCCCCC[C@H](NC(=O)NC2(CS(=O)(=O)C(C)(C)C)CCCCC2)C(=O)N2C[C@H]3[C@@H]([C@H]2C(=O)N1)C3(C)C [drawing 699]
25 | 104 nM | CCC[C@H](NC(=O)[C@@H]1[C@H]2CCC[C@H]2CN1C(=O)[C@@H](NC(=O)[C@@H](NC(=O)c1cnccn1)C1CCCCC1)C(C)(C)C)C(=O)C(=O)NC1CC1
26 | 1900 nM | CC(C)(C)OC(=O)N[C@H](C(=O)N1CCC[C@H]1C(=O)NC(CC1CCC1)C(=O)C(N)=O)C(C)(C)C (some centres unmarked)
27 | 530 nM | CN(C[C@@H](NC(=O)N[C@H](C(=O)N1C[C@H]2[C@@H]([C@H]1C(=O)N[C@@H](CC(F)F)C(=O)N[C@@H]1C[C@@H]1c1ccccc1)C2(C)C)C(C)(C)C)C(C)(C)C)S(C)(=O)=O
28 | 250 nM | CC1(C)CC(=O)N(C[C@@H](NC(=O)N[C@H]2CCCCCCCCC[C@@H](C(=O)C(=O)NC3CC3)NC(=O)[C@@H]3[C@@H]4[C@H](CN3C2=O)C4(C)C)C(C)(C)C)C(=O)C1
29 | 47 nM | CC(C)(C)[C@H](NC(=O)NC1(CS(=O)(=O)C(C)(C)C)CCCCC1)C(=O)N1C[C@H]2[C@@H]([C@H]1C(=O)N[C@@H](CCC1CC1)C(=O)C(=O)NC1CC1)C2(C)C [drawing 671]
30 | 49 nM | C=CCNC(=O)C(=O)[C@H](CCCC)NC(=O)[C@@H]1[C@@H]2[C@H](CN1C(=O)[C@@H](NC(=O)NC1([C@H]3CCCS3(=O)=O)CCCCC1)C(C)(C)C)C2(C)C [drawing 672]
31 | 1.9 nM | CC(=O)N[C@@H](CC(C)C)C(=O)N[C@@H](CC(C)C)C(=O)N[C@H](C=O)CCCNC(=N)N [drawing 688]
32 | 25 nM | CC(C)C[C@@H](C(=O)NC(CC1CC1)C(=O)C(N)=O)C1CCCCCC[C@H](NC(=O)OC(C)(C)C)C1=O (some centres unmarked)
